Assay results as given in ChEMBL document CHEMBL3885881, “DrugMatrix”.

Species: Rattus norvegicus
Assay: DrugMatrix - Regimen: Daily Repeat
Type: toxicity, organism-based, Sprague-Dawley
Set-up: regimen Daily Repeat, gender Male, age 6-8 weeks
Conditions: in vivo, po, route oral GAVAGE, […]; for ABSOLUTE BASOPHIL / ABSOLUTE EOSINOPHIL / ABSOLUTE LYMPHOCYTE / ABSOLUTE MONOCYTE / ABSOLUTE SEGMENTED NEUTROPHIL / BASOPHIL / EOSINOPHIL / ERYTHROCYTE COUNT / HEMATOCRIT / HEMOGLOBIN / LEUKOCYTE COUNT / LYMPHOCYTE / MEAN CORPUSCULAR HEMOGLOBIN / MEAN CORPUSCULAR HEMOGLOBIN CONCENTRATION / MEAN CORPUSCULAR VOLUME / MONOCYTE / NEUTROPHIL / NUCLEATED RED BLOOD CELLS / PLATELET COUNT: tissue Blood; for ALANINE AMINOTRANSFERASE / ALBUMIN / ALKALINE PHOSPHATASE / ASPARTATE AMINOTRANSFERASE / BLOOD UREA NITROGEN / CARBON DIOXIDE / CHLORIDE / CHOLESTEROL / CREATINE PHOSPHOKINASE / CREATININE / GLUCOSE / LACTATE DEHYDROGENASE / LIPASE / PHOSPHORUS / POTASSIUM / SODIUM / TOTAL BILIRUBIN / TOTAL PROTEIN / URIC ACID: tissue Plasma
[1] = 250 mg/kg, 72 h, dose level Low, time 3 day
[2] = 250 mg/kg, 120 h, dose level Low, time 5 day
[3] = 930 mg/kg, 72 h, dose level High, time 3 day
[4] = 930 mg/kg, 120 h, dose level High, time 5 day

Which results are given for `CC12CCC(CC1)C(C)(C)O2` [EUCALYPTOL]?
ABSOLUTE BASOPHIL [1]: 0 CELLS/uL; ABSOLUTE EOSINOPHIL [1]: 0 CELLS/uL; ABSOLUTE LYMPHOCYTE [1]: 12865.33 CELLS/uL; ABSOLUTE MONOCYTE [1]: 104 CELLS/uL; ABSOLUTE SEGMENTED NEUTROPHIL [1]: 1797.33 CELLS/uL; BASOPHIL [1]: 0%; EOSINOPHIL [1]: 0%; ERYTHROCYTE COUNT [1]: 5.22 x10E6/uL; HEMATOCRIT [1]: 32.73%; HEMOGLOBIN [1]: 12.97 G/DL; LEUKOCYTE COUNT [1]: 14.77 x10E3/uL; LYMPHOCYTE [1]: 87.33%; MEAN CORPUSCULAR HEMOGLOBIN [1]: 24.83 pg; MEAN CORPUSCULAR HEMOGLOBIN CONCENTRATION [1]: 39.63 G/DL; MEAN CORPUSCULAR VOLUME [1]: 62.77 fL; MONOCYTE [1]: 0.67%; NEUTROPHIL [1]: 12%; NUCLEATED RED BLOOD CELLS [1]: 0 /100WBC; PLATELET COUNT [1]: 1143.67 x10E3/uL; ALANINE AMINOTRANSFERASE [1]: 68.67 u/L; ALBUMIN [1]: 4.03 G/DL; ALKALINE PHOSPHATASE [1]: 413.33 u/L; ASPARTATE AMINOTRANSFERASE [1]: 95.33 u/L; BLOOD UREA NITROGEN [1]: 12.33 mg/dL; CARBON DIOXIDE [1]: 24 mmol/L; CHLORIDE [1]: 103.67 MEQ/L; CHOLESTEROL [1]: 84.67 mg/dL; CREATINE PHOSPHOKINASE [1]: 439.67 u/L; CREATININE [1]: 0.17 mg/dL; GLUCOSE [1]: 160.33 mg/dL; LACTATE DEHYDROGENASE [1]: 154.67 u/L; LIPASE [1]: 10.33 u/L; PHOSPHORUS [1]: 12.5 mg/dL; POTASSIUM [1]: 6.64 MEQ/L; SODIUM [1]: 145.33 MEQ/L; TOTAL BILIRUBIN [1]: 0.2 mg/dL; TOTAL PROTEIN [1]: 5.53 G/DL; URIC ACID [1]: 1.43 mg/dL; ABSOLUTE BASOPHIL [2]: 0 CELLS/uL; ABSOLUTE EOSINOPHIL [2]: 0 CELLS/uL; ABSOLUTE LYMPHOCYTE [2]: 15020.67 CELLS/uL; ABSOLUTE MONOCYTE [2]: 301.67 CELLS/uL; ABSOLUTE SEGMENTED NEUTROPHIL [2]: 1277.67 CELLS/uL; BASOPHIL [2]: 0%; EOSINOPHIL [2]: 0%; ERYTHROCYTE COUNT [2]: 5.46 x10E6/uL; HEMATOCRIT [2]: 34.57%; HEMOGLOBIN [2]: 14.17 G/DL; LEUKOCYTE COUNT [2]: 16.6 x10E3/uL; LYMPHOCYTE [2]: 90.33%; MEAN CORPUSCULAR HEMOGLOBIN [2]: 25.97 pg; MEAN CORPUSCULAR HEMOGLOBIN CONCENTRATION [2]: 40.97 G/DL; MEAN CORPUSCULAR VOLUME [2]: 63.33 fL; MONOCYTE [2]: 1.67%; NEUTROPHIL [2]: 8%; NUCLEATED RED BLOOD CELLS [2]: 0.67 /100WBC; PLATELET COUNT [2]: 1304.67 x10E3/uL; ALANINE AMINOTRANSFERASE [2]: 61 u/L; ALBUMIN [2]: 4.2 G/DL; ALKALINE PHOSPHATASE [2]: 377.33 u/L; ASPARTATE AMINOTRANSFERASE [2]: 78.33 u/L; BLOOD UREA NITROGEN [2]: 16 mg/dL; CARBON DIOXIDE [2]: 24.33 mmol/L; CHLORIDE [2]: 103 MEQ/L; CHOLESTEROL [2]: 71 mg/dL; CREATINE PHOSPHOKINASE [2]: 231.33 u/L; CREATININE [2]: 0.17 mg/dL; GLUCOSE [2]: 153.67 mg/dL; LACTATE DEHYDROGENASE [2]: 170.67 u/L; LIPASE [2]: 10 u/L; PHOSPHORUS [2]: 12.6 mg/dL; POTASSIUM [2]: 6.77 MEQ/L; SODIUM [2]: 146.3 MEQ/L; TOTAL BILIRUBIN [2]: 0.13 mg/dL; TOTAL PROTEIN [2]: 5.97 G/DL; URIC ACID [2]: 1.53 mg/dL; ABSOLUTE BASOPHIL [3]: 0 CELLS/uL; ABSOLUTE EOSINOPHIL [3]: 0 CELLS/uL; ABSOLUTE LYMPHOCYTE [3]: 15782.67 CELLS/uL; ABSOLUTE MONOCYTE [3]: 121.67 CELLS/uL; ABSOLUTE SEGMENTED NEUTROPHIL [3]: 2129 CELLS/uL; BASOPHIL [3]: 0%; EOSINOPHIL [3]: 0%; ERYTHROCYTE COUNT [3]: 5.63 x10E6/uL; HEMATOCRIT [3]: 35.83%; HEMOGLOBIN [3]: 14.2 G/DL; LEUKOCYTE COUNT [3]: 18.03 x10E3/uL; LYMPHOCYTE [3]: 87.67%; MEAN CORPUSCULAR HEMOGLOBIN [3]: 25.3 pg; MEAN CORPUSCULAR HEMOGLOBIN CONCENTRATION [3]: 39.67 G/DL; MEAN CORPUSCULAR VOLUME [3]: 63.73 fL; MONOCYTE [3]: 0.67%; NEUTROPHIL [3]: 11.67%; NUCLEATED RED BLOOD CELLS [3]: 0 /100WBC; PLATELET COUNT [3]: 1268 x10E3/uL; ALANINE AMINOTRANSFERASE [3]: 85.33 u/L; ALBUMIN [3]: 4.33 G/DL; ALKALINE PHOSPHATASE [3]: 424.33 u/L; ASPARTATE AMINOTRANSFERASE [3]: 90.67 u/L; BLOOD UREA NITROGEN [3]: 16.67 mg/dL; CARBON DIOXIDE [3]: 23.33 mmol/L; CHLORIDE [3]: 103 MEQ/L; CHOLESTEROL [3]: 84.33 mg/dL; CREATINE PHOSPHOKINASE [3]: 211.67 u/L; CREATININE [3]: 0.24 mg/dL; GLUCOSE [3]: 153.67 mg/dL; LACTATE DEHYDROGENASE [3]: 86.67 u/L; LIPASE [3]: 11.67 u/L; PHOSPHORUS [3]: 12.2 mg/dL; POTASSIUM [3]: 6.76 MEQ/L; SODIUM [3]: 146.43 MEQ/L; TOTAL BILIRUBIN [3]: 0.13 mg/dL; TOTAL PROTEIN [3]: 6.03 G/DL; URIC ACID [3]: 1.67 mg/dL; ABSOLUTE BASOPHIL [4]: 0 CELLS/uL; ABSOLUTE EOSINOPHIL [4]: 0 CELLS/uL; ABSOLUTE LYMPHOCYTE [4]: 18083.67 CELLS/uL; ABSOLUTE MONOCYTE [4]: 256.67 CELLS/uL; ABSOLUTE SEGMENTED NEUTROPHIL [4]: 1226.33 CELLS/uL; BASOPHIL [4]: 0%; EOSINOPHIL [4]: 0%; ERYTHROCYTE COUNT [4]: 5.66 x10E6/uL; HEMATOCRIT [4]: 35.63%; HEMOGLOBIN [4]: 14.2 G/DL; LEUKOCYTE COUNT [4]: 19.57 x10E3/uL; LYMPHOCYTE [4]: 92.33%; MEAN CORPUSCULAR HEMOGLOBIN [4]: 25.1 pg; MEAN CORPUSCULAR HEMOGLOBIN CONCENTRATION [4]: 39.87 G/DL; MEAN CORPUSCULAR VOLUME [4]: 62.97 fL; MONOCYTE [4]: 1.33%; NEUTROPHIL [4]: 6.33%; NUCLEATED RED BLOOD CELLS [4]: 0 /100WBC; PLATELET COUNT [4]: 1326.67 x10E3/uL; ALANINE AMINOTRANSFERASE [4]: 58 u/L; ALBUMIN [4]: 4.17 G/DL; ALKALINE PHOSPHATASE [4]: 302.33 u/L; ASPARTATE AMINOTRANSFERASE [4]: 76.33 u/L; BLOOD UREA NITROGEN [4]: 14 mg/dL; CARBON DIOXIDE [4]: 26.33 mmol/L; CHLORIDE [4]: 101.67 MEQ/L; CHOLESTEROL [4]: 73 mg/dL; CREATINE PHOSPHOKINASE [4]: 275 u/L; CREATININE [4]: 0.22 mg/dL; GLUCOSE [4]: 158 mg/dL; LACTATE DEHYDROGENASE [4]: 114.33 u/L; LIPASE [4]: 11 u/L; PHOSPHORUS [4]: 11.8 mg/dL; POTASSIUM [4]: 6.84 MEQ/L; SODIUM [4]: 145.5 MEQ/L; TOTAL BILIRUBIN [4]: 0.23 mg/dL; TOTAL PROTEIN [4]: 5.97 G/DL; URIC ACID [4]: 1.8 mg/dL
